Results as given in publication PMC12396409, “Screening and hit evaluation of a microbial metabolite library against the pathogenic Plasmodium falciparum and Toxoplasma gondii parasites” (International Journal for Parasitology: Drugs and Drug …, 2025).
Read-outs that look alike come from different tables or passages of the source.

Columns and labels:
[1] = test system: P. falciparum 3D7 parasites; experiment: P. falciparum growth inhibition assay, 1-cycle (72 h treatment), SYBR DNA staining (library screen at 2 μg/mL and dose-response); type: cell-based, Plasmodium falciparum
[2] = test system: T. gondii RH strain (RH-Tub-eYFP) tachyzoites; experiment: microbe, parasite or virus in culture; type: cell-based, Toxoplasma gondii; details: 72 h
[3] = test system: P. falciparum 3D7 parasites; experiment: P. falciparum growth inhibition assay, 2-cycle (120 h treatment), delayed-death screen and dose-response; type: cell-based, Plasmodium falciparum; details: for activity at 2 µg/mL: Plasmodium falciparum
[4] = library screen at 2 μg/mL, 72 h, % growth, replicate 1
[5] = library screen at 2 μg/mL, 72 h, % growth, replicate 2
[6] = library screen at 2 μg/mL, % growth, replicate 1
[7] = library screen at 2 μg/mL, % growth, replicate 2
[8] = library screen at 2 μg/mL, 120 h, % growth, replicate 1
[9] = library screen at 2 μg/mL, 120 h, % growth, replicate 2
[10] = T. gondii, 2 μg/mL, values are growth (% of control)

## C=C[C@]1(C)C[C@@H](OC(=O)CO)[C@]2(C)[C@H](C)CC[C@]3(CCC(=O)[C@H]32)[C@@H](C)[C@@H]1O [Pleuromutilin]
[1]; Plasmodium falciparum, 3D7, 72 h treatment, mean ± S.D., n ≥ 3, read-out: IC50 (μM), P. falciparum
  IC50: > 1 µM
[1]; library screen at 2 μg/mL, 3D7, 72 h, DD from the 120 h timepoint
  Screen (P. falciparum): I, I
[2]; Toxoplasma gondii, RH strain, mean ± S.D., n ≥ 3, read-out: IC50 (μM), T. gondii (converted)
  IC50: > 1 µM
[2]; library screen at 2 μg/mL, RH strain
  Screen (T. gondii): I, I
[3]; 120 h
  activity in 120 h dose-response assay against P. falciparum: did not display any activity

## Bafilomycin D
[1]; [4]
  Pf_72h_%Growth_Rep1: 3.99%
[1]; [5]
  Pf_72h_%Growth_Rep2: 4.20%
[2]; [6]
  Tg_72h_%Growth_Rep1: 0.37%
[2]; [7]
  Tg_72h_%Growth_Rep2: -0.37%
[3]; [8]
  Pf_120h_%Growth_Rep1: 2.60%
[3]; [9]
  Pf_120h_%Growth_Rep2: -8.55%

## CC1=C(O)C(=O)[C@@H]2O[C@@H]2C1=O [Terreic acid]
[1]; Plasmodium falciparum, 3D7, 72 h, P. falciparum, 72 h, screen at 2 μg/mL, replicate 1, read-out: Pf_72h_%Growth_Rep1
  activity at 2 µg/mL: 89.2%
[1]; Plasmodium falciparum, 3D7, 72 h, P. falciparum, 72 h, screen at 2 μg/mL, replicate 2, read-out: Pf_72h_%Growth_Rep2
  activity at 2 µg/mL: 121%
[2]; Toxoplasma gondii, T. gondii, screen at 2 μg/mL, replicate 1, read-out: Tg_72h_%Growth_Rep1
  percent parasite growth at 2 µg/mL: 132%
[2]; Toxoplasma gondii, T. gondii, screen at 2 μg/mL, replicate 2, read-out: Tg_72h_%Growth_Rep2
  percent parasite growth at 2 µg/mL: 83%
[3]; 3D7, 120 h, P. falciparum, 120 h, screen at 2 μg/mL, replicate 1, read-out: Pf_120h_%Growth_Rep1
  activity at 2 µg/mL: 100%
[3]; 3D7, 120 h, P. falciparum, 120 h, screen at 2 μg/mL, replicate 2, read-out: Pf_120h_%Growth_Rep2
  activity at 2 µg/mL: 98%

## C/C(=C\c1csc(C)n1)[C@@H]1C[C@@H]2O[C@]2(C)CCC[C@H](C)[C@H](O)[C@@H](C)C(=O)C(C)(C)[C@@H](O)CC(=O)O1 [Epothilone B]
[1]; Plasmodium falciparum, 3D7, library screen at 2 μg/mL, 72 h, % growth, replicate 1, read-out: Pf_72h_%Growth_Rep1
  activity at 2 µg/mL: 31.4%
[1]; Plasmodium falciparum, 3D7, library screen at 2 μg/mL, 72 h, % growth, replicate 2, read-out: Pf_72h_%Growth_Rep2
  activity at 2 µg/mL: -0.31%
[2]; Toxoplasma gondii, library screen at 2 μg/mL, % growth, replicate 1, read-out: Tg_72h_%Growth_Rep1
  percent parasite growth at 2 µg/mL: 5.99%
[2]; Toxoplasma gondii, library screen at 2 μg/mL, % growth, replicate 2, read-out: Tg_72h_%Growth_Rep2
  percent parasite growth at 2 µg/mL: 3.71%
[3]; 3D7, library screen at 2 μg/mL, 120 h, % growth, replicate 1, read-out: Pf_120h_%Growth_Rep1
  activity at 2 µg/mL: 5.18%
[3]; 3D7, library screen at 2 μg/mL, 120 h, % growth, replicate 2, read-out: Pf_120h_%Growth_Rep2
  activity at 2 µg/mL: 3.63%

## COc1ccc(/C=C/C(=O)O)cc1O [BIA-I1729]
[1]; P. falciparum 3D7, 72 h, library screen at 2 μg/mL, % growth, replicate 1
  Pf_72h_%Growth_Rep1: 80.53%
[1]; P. falciparum 3D7, 72 h, library screen at 2 μg/mL, % growth, replicate 2
  Pf_72h_%Growth_Rep2: 116.78%
[2]; T. gondii RH, library screen at 2 μg/mL, % growth, replicate 1
  Tg_72h_%Growth_Rep1: 136.89%
[2]; T. gondii RH, library screen at 2 μg/mL, % growth, replicate 2
  Tg_72h_%Growth_Rep2: 92.18%
[3]; P. falciparum 3D7, 120 h, library screen at 2 μg/mL, % growth, replicate 1
  Pf_120h_%Growth_Rep1: 85.87%
[3]; P. falciparum 3D7, 120 h, library screen at 2 μg/mL, % growth, replicate 2
  Pf_120h_%Growth_Rep2: 112.77%

## CCCC[C@@H](C)[C@@H](OC(=O)C[C@@H](CC(=O)O)C(=O)O)[C@H](C[C@@H](C)C[C@H](O)CCCC[C@@H](O)C[C@H](O)[C@H](C)N)OC(=O)C[C@@H](CC(=O)O)C(=O)O [Fumonisin B1]
[1]; [4]
  Pf_72h_%Growth_Rep1: 90.20%
[1]; [5]
  Pf_72h_%Growth_Rep2: 119.39%
[2]; [6]
  Tg_72h_%Growth_Rep1: 135.48%
[2]; [7]
  Tg_72h_%Growth_Rep2: 98.34%
[3]; [8]
  Pf_120h_%Growth_Rep1: 97.02%
[3]; [9]
  Pf_120h_%Growth_Rep2: 120.58%

## O=C1c2c(O)cc(O)cc2OC1(O)Cc1ccc(O)c(O)c1 (centres unmarked) [Alphitonin]
[1]; [4]
  Pf_72h_%Growth_Rep1: 88.31%
[1]; [5]
  Pf_72h_%Growth_Rep2: 93.84%
[2]; [6]
  Tg_72h_%Growth_Rep1: 106.55%
[2]; [7]
  Tg_72h_%Growth_Rep2: 96.34%
[3]
  Pf_120h_%Growth_Rep1: 96.34%
[3]; [9]
  Pf_120h_%Growth_Rep2: 94.83%

## O=C1NC(c2c[nH]c3ccccc23)=C/C1=C1\C(=O)Nc2ccccc21 [Deoxyviolacein]
[1]; [4]
  Pf_72h_%Growth_Rep1: 4.36%
[1]; [5]
  Pf_72h_%Growth_Rep2: 20.63%
[2]; T. gondii, 2 μg/mL, mean of both replicates, growth (% of control)
  Mean: 20.63
[2]; [10]
  Replicate 1: 14.71
  Replicate 2: 26.55
[2]; [6]
  Tg_72h_%Growth_Rep1: 14.71%
[2]; [7]
  Tg_72h_%Growth_Rep2: 26.55%
[3]; [8]
  Pf_120h_%Growth_Rep1: 11.68%
[3]; [9]
  Pf_120h_%Growth_Rep2: 9.06%
